*: point of attachment. AMC = Cc1cc(=O)oc2cc(N*)ccc12; Cbz = O=C(OCc1ccccc1)*
Legend:
thrombin [1] = molecular target: T1, thrombin (Homo sapiens, UniProt P00734); assay: Label-free nanoliter HTS reaction on MALDI target: thrombin release of fibrinopeptides A and B from fibrinogen, MALDI MS detection; format: biochemical; settings: benzamidine in the nanoliter reaction, FIG. 26B
Description: The glycerol in the reaction was then removed, and MALDI matrix was deposited to result in a thin film suitable (FIG. 26A) for MS detection of FPA/FPB.
A 8×12 array of reactions were printed using an OmniGrid microarrayer containing varying concentrations of fibrinogen and a fibrinopeptide MS satandard. Certain reactions contained 1 mM benzamidine. The array was activated with thrombin and incubated under humidity (top row, A), the glycerol was removed (middle row, A), and then coated with MALDI matrix (bottom row, A). […] Conditions of the MALDI MS were: Voyager—DE PRO (sinapinic acid matrix), Glu1-Fibrinopeptide B (1 ug/ml) control, Reflector Mode, Positive Polarity, 1000-2000 Da Acquisition Range, 20000 V Accelerating voltage, 2033 laser. intensity (20.0 Hz; 100/spectrum), Extraction delay time: 150 nsec, Grid voltage: 75%, Guide wire voltage: 0.002%.

plasmin [2] = settings: Morita, 1977; cited from earlier work
plasmin [3] = molecular target: plasmin (Homo sapiens, UniProt P00747); assay: Microarray assay: deposition of pure plasmin onto fluorogenic substrate array; format: biochemical; settings: pure plasmin (1 μM) deposited on the array
Chain of plasmin (Homo sapiens, UniProt P00747) (P00747 581-810 limits assumed, species assumed): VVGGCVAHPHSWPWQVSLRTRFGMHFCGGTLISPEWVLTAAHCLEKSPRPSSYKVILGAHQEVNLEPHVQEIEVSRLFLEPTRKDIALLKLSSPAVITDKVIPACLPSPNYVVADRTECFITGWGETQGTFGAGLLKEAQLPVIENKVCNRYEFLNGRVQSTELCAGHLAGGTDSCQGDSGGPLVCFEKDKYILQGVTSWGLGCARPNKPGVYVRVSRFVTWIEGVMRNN
Chain of plasmin (Homo sapiens, UniProt P00747) (P00747 97-580 partner limits assumed, species assumed): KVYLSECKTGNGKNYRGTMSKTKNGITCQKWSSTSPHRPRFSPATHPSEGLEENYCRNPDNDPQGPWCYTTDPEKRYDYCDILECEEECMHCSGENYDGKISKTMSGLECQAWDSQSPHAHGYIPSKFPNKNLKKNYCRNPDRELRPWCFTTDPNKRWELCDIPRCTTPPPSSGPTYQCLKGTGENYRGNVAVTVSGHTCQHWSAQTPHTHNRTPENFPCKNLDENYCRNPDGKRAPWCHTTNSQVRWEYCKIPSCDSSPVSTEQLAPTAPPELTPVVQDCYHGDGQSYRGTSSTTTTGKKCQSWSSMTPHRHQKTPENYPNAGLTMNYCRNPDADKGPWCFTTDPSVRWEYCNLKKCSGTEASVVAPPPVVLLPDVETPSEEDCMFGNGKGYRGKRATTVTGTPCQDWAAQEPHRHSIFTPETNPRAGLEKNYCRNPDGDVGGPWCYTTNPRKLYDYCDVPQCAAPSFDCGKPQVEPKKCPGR

thrombin [4] = molecular target: T1, thrombin; assay: Microarray assay: aerosol deposition of thrombin onto fluorogenic substrates in DMSO/glycerol; format: biochemical; settings: after spray application of thrombin
Description: Well characterized for over 30 years, serine proteases of the coagulation pathway in plasma were selected as a system in which to monitor the delivery of complex enzyme fluids to the microassay. Fluorogenic substrates in DMSO/glycerol were assayed to a glass slide.
After spray application, thrombin caused a 65-fold increase in fluorescence activity after conversion of the boc-VPR-MCA substrate. […] Aerosol deposition of pure tPA (10 μM) to a sensing array caused significant cleavage of the tPA, thrombin and Xa substrates, resulting in fluorescence that was 18- to 20-fold above background.

N=C(N)c1ccccc1 [Benzamidine]
inhibition of thrombin-mediated release of fibrinopeptides A and B (FPA/FPB) (thrombin [1]): completely inhibited the reaction

Cbz-Phe-Arg-{AMC}
reported plasmin activity on substrate (plasmin [2]): activity

boc-VLK-MCA
signal above background (plasmin [3]): 25 fold

boc-VPR-MCA
increase in fluorescence activity after conversion of the substrate (thrombin [4]): 65 fold | reported plasmin activity on substrate (plasmin [2]): activity

— patent US7297501B2, “Method and devices for running reactions on a target plate for MALDI mass spectrometry” (University of Pennsylvania, priority 2001, dated 2007)
